Key:
hippocampal neurons = experiment: Oxygen-glucose deprivation (OGD) apoptosis in hippocampal neurons; assay type: cell-based
TrkB [1] = experiment: TrkB phosphorylation in hippocampal neurons (immunofluorescent staining, immunoblotting); assay type: cell-based; conditions: hippocampal neurons
Procedure: Unless specifically described, primary hippocampal neurons are seeded on poly-L lysine coated coverslips in a 12-well plate. After 7 days in vitro, the neurons are treated with 100 ng/ml BDNF or variety of flavone compounds (1 μM) for 30 minutes, and then are washed with PBS. Cells are fixed with 3% formaldehyde in PBS at room temperature for 10 minutes. The cells then are permeabilized and blocked by 0.4% Triton X-100 and 2% FBS in PBS at room temperature for 15 minutes, are washed with PBS three times, and are treated with anti-MAP2 (1:200) and anti-phospho-TrkB antibodies (1:500). After staining with FITC- or Rhodamine-conjugated secondary antibody, the coverslips are mounted on slides. Fluorescent images are taken by a fluorescence microscope.
BDNF binding to TrkB induces its autophosphorylation and, subsequently, activation of downstream kinase pathways including MAPK and PI3/Akt. […] To examine whether an identified active compound stimulates TrkB-mediated downstream signaling cascades, Western analysis is performed and the activation of Akt and Erk also is monitored. […] To probe the time course of TrkB activation triggered by an identified active compound, hippocampal neurons are treated with an identified active compound at 500 nM and phosphorylation of Erk and Akt is determined over time by Western analysis. […]

TrkA or TrkB = experiment: RT-PCR analysis of Trk receptors in mouse brain; assay type: in vivo; conditions: mouse brain upon deoxygedunin treatment
[2] = target: TrkB extra-cellular domain (ECD) (Homo sapiens, UniProt Q16620); experiment: [3H]-deoxygedunin ligand binding assay, TrkB ECD (Scatchard plot)
TrkB extra-cellular domain (ECD), sequence (Q16620 32-430 limits assumed): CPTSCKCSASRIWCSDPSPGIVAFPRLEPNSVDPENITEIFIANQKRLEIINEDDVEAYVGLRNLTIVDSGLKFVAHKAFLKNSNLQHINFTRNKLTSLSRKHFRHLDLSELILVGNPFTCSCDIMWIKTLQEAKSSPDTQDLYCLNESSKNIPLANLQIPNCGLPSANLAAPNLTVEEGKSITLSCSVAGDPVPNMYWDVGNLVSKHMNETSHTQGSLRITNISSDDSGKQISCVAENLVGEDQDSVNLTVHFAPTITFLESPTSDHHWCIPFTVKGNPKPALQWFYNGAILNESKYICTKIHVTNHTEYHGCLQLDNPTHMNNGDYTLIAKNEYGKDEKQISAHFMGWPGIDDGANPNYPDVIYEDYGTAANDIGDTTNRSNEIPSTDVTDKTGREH
Procedure: Purified TrkB ECD or ICD proteins (10 μg/each) were incubated with different [^3H-deoxygedunin] in 1 ml binding buffer (0.05 M Na/K phosphate buffer (pH 7.1), 200 mM NaCl) (1 nM [^3H]deoxygedunin˜82300 cpm) at 4° C. for 10 minutes. After incubation, the reaction mixture was loaded on filter paper and washed with 3×5 ml Tris buffer (100 mM Tris, pH 7.1). The dried filter paper was put into a small vial and subjected to liquid scintillation counter analysis. The value of the dissociation constant and the number of sites were obtained from Scatchard plots by using the equation r/[L]free=n/Kd−r/Kd, where r is the ratio of the concentration of bound ligand to the total protein concentration and n is the number of binding sites.
To determine whether an identified active compound physically and directly binds to the TrkB receptor, in vitro binding assays can be conducted with purified TrkB extracellular domain (ECD) and intracellular domain (ICD) recombinant proteins. Purified TrkB ECD and ICD (10 μg of each) are incubated with different concentrations of ^3H-labeled identified active compound in 1 ml of binding buffer (0.05M Na/K phosphate buffer, pH 7.1, 200 mM NaCl) at 4° C. for 10 minutes. After the incubation, the reaction mixture is loaded on filter paper. The mixture is washed three times with Tris buffer (100 mM Tris, pH 7.1), and the dried filter paper is put into a small vial and subjected to liquid scintillation counter analysis. […] The value of the dissociate constant and the number of sites will then be obtained from Scatchard plots using the equation r/[L]free=n/Kd−r/Kd, where r is the ratio of the concentration of bound ligand to the total protein concentration and n is the number of binding sites.
(§1) To determine whether deoxygedunin binds the intra-cellular domain (ICD) or extra-cellular domain (ECD) of the TrkB receptor, ligand binding assays with [^3H]-deoxygedunin were performed. […] The coprecipitated HA-TrkB was also prominently tyrosine phosphorylated (see FIG. 14, 3rd panel).

TrkB [3] = target: T1, TrkB (Homo sapiens, UniProt Q16620); experiment: Tyrosine phosphorylation of TrkB in transfected HEK293 cells; assay type: cell-based
T1 construct: expressed in transfected cells; host or cells: HEK293
T1 sequence (Q16620 32-822, species assumed): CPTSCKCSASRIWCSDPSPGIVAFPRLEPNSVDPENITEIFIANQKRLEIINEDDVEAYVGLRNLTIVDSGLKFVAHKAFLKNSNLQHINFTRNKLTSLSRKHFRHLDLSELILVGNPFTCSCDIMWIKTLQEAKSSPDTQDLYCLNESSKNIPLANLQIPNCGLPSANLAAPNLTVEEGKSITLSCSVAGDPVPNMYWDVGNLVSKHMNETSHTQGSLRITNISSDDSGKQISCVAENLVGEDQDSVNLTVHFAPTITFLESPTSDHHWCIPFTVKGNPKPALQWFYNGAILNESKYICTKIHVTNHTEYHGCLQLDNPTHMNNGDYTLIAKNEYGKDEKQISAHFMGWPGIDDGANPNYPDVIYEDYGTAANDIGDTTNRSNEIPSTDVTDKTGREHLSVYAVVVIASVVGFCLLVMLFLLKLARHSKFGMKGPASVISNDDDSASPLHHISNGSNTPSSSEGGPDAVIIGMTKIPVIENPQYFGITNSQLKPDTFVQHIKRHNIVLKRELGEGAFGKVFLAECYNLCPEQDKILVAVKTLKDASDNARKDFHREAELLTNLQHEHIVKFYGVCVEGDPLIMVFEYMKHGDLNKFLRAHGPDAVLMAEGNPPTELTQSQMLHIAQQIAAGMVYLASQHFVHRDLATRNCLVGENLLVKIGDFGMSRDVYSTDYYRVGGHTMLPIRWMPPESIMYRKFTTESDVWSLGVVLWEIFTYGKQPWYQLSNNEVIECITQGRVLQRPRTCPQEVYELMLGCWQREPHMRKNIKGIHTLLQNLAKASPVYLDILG
Source text: To determine if an identified active compound promotes tyrosine phosphorylation of the other Trk receptors, HEK293 cells are transfected with various Trk receptors, which is followed by treatment with the identified active compound. Treatment with an identified active compound that elicits tyrosine phosphorylation in the TrkB receptor but not in the TrkA or TrkC receptor indicates an active compound.
as §1

BDNF −/− pups = experiment: Vestibular ganglion loss in BDNF −/− pups; assay type: in vivo, mouse
Procedure: The cochleae of various drug-treated pups (P1 or P2 BDNF +/+ and −/− pups) were first fixed through cardioperfusion of 4% paraformaldehyde (in PBS). Each cochlea was dissected out and postfixed in 1% osmium for one hour at room temperature. Samples were decalcified in 0.35 M EDTA (pH 7.5, in PBS) for 72 hours at 4° C., followed by gradual dehydration in graded alcohols, infiltrated, and embedded in epoxy resin with the conventional protocols. Consecutive cochlear sections (5 μm in thickness) were cut with a microtome (Microm HM335E, GmbH) along the axis of the modiolus. Sections were stained with toluidine blue. Vestibular ganglions were identified by their location in the auditory internal meatus with the basal cochlear turn and the cochlear modiolus as morphological reference landmarks.
To examine whether deoxygedunin activating TrkB involved endogenous BDNF, BDNF conditional knockout mice with BDNF gene deletion limited to cortex (thus allowing normal development) were used. Deoxygedunin (5 mg/kg) was intraperitoneally injected into the BDNF cortex conditional knockout mice and the mice were sacrificed at 4 hours. […] Mutant mice lacking BDNF were known to have severe deficiencies in coordination and balance, which have been associated with excessive degeneration in several sensory ganglia including the vestibular ganglion (Ernfors et al., Nature 368, 147-150 (1994)). To determine whether deoxygedunin rescued this loss of vestibular ganglions in BDNF −/− pups, conventional BDNF +/− mice were bred with the same genotype mice. Deoxygedunin (5 mg/kg, i.p.) was administered to the pregnant mice at day E7.5 until birth.

CC(=O)O[C@@H]1C[C@H]2C(C)(C)C(=O)C=C[C@]2(C)[C@H]2CC[C@]3(C)C(=CC(=O)O[C@H]3c3ccoc3)[C@@]21C [deoxygedunin]
protective effects on hippocampal neurons under OGD (hippocampal neurons; apoptotic ratio compared to BDNF and DMSO): potent protective effects | titration assay under OGD (hippocampal neurons; dose titration): protects neurons in a dose-dependent manner | TrkB phosphorylation (TrkB [1]): strong TrkB phosphorylation | change of TrkA or TrkB (RT-PCR) (TrkA or TrkB): no change of TrkA or TrkB | Kd ([2]; Scatchard plot analysis, read-out: binding constant Kd): 1400 nM | major binding site in TrkB ECD (truncation assays) ([2]; TrkB ECD truncation mutants): Ig2 domain | tyrosine phosphorylation in TrkB (TrkB [3]): elicited tyrosine phosphorylation in TrkB | vestibular ganglia in stained inner ear sections (BDNF −/− pups; BDNF mutant pups, 5 mg/kg i.p.): displayed intact vestibular ganglia | vestibular ganglia detected (quantitative analysis) (BDNF −/− pups; BDNF −/− pups, 5 mg/kg i.p. to pregnant mice from E7.5 and to pups): 42.2±6.3% | survival of BDNF −/− pups under treatment (BDNF −/− pups; neonatal pups receiving 5 mg/kg deoxygedunin): continued dying at P1 or P2

Source: patent US8609870B2, “Treating various disorders using TrkB agonists” (Emory University, priority 2008, dated 2013)
